Measurements taken from ChEMBL document CHEMBL3994622, “Design and synthesis of new RAF kinase-inhibiting antiproliferative quinoline derivatives. Part 2: Diarylurea derivatives” (Eur J Med Chem, 2017).

test system: RXF 393; experiment: Growth inhibition of human RXF393 cells assessed as cell growth at 10 uM incubated for 48 hrs by sulforhodamine B assay relative to control; assay type: functional; settings: RXF 393, 48 h, read-out: Activity

SMILES | growth at 10 µM [%]
COc1cc2cc(Oc3ccc(NC(=O)Nc4ccc(Cl)c(Cl)c4)cc3)c(C)nc2cc1OC | 22.3

test system: A498; experiment: Growth inhibition of human A498 cells incubated for 48 hrs by sulforhodamine B assay; assay type: functional; settings: A498, 48 h

SMILES | GI50 [µM] | TGI [µM]
COc1cc2cc(Oc3ccc(NC(=O)Nc4ccc(Cl)c(Cl)c4)cc3)c(C)nc2cc1OC | 1.95 | 7.93

same assay, conditions: A498, 48 h, read-out: LC50 (the source's name)

SMILES | CC50 [µM]
COc1cc2cc(Oc3ccc(NC(=O)Nc4ccc(Cl)c(Cl)c4)cc3)c(C)nc2cc1OC | 74.9

test system: NCI/ADR-RES; experiment: Growth inhibition of human NCI/ADR-RES cells assessed as cell growth at 10 uM incubated for 48 hrs by sulforhodamine B assay relative to control; assay type: functional; settings: read-out: Activity

SMILES | growth at 10 µM [%]
COc1cc2cc(Oc3ccc(NC(=O)Nc4ccc(Cl)c(Cl)c4)cc3)c(C)nc2cc1OC | 17.1

test system: KM12; experiment: Growth inhibition of human KM12 cells assessed as cell growth at 10 uM incubated for 48 hrs by sulforhodamine B assay relative to control; assay type: functional; settings: KM12, 48 h, read-out: Activity

SMILES | growth at 10 µM [%]
COc1cc2cc(Oc3ccc(NC(=O)Nc4ccc(Cl)c(Cl)c4)cc3)c(C)nc2cc1OC | 13.9

test system: M14; experiment: Growth inhibition of human M14 cells assessed as cell growth at 10 uM incubated for 48 hrs by sulforhodamine B assay relative to control; assay type: functional; settings: M14, 48 h, read-out: Activity

SMILES | growth at 10 µM [%]
COc1cc2cc(Oc3ccc(NC(=O)Nc4ccc(Cl)c(Cl)c4)cc3)c(C)nc2cc1OC | 25.8

test system: T47D; experiment: Growth inhibition of human T47D cells incubated for 48 hrs by sulforhodamine B assay; assay type: functional; settings: not given

SMILES | GI50 [µM] | TGI [µM]
COc1cc2cc(Oc3ccc(NC(=O)Nc4ccc(Cl)c(Cl)c4)cc3)c(C)nc2cc1OC | 2.7 | 10.1

same assay, conditions: read-out: LC50 (the source's name)

SMILES | CC50 [µM]
COc1cc2cc(Oc3ccc(NC(=O)Nc4ccc(Cl)c(Cl)c4)cc3)c(C)nc2cc1OC | 84.7

test system: SW-620; experiment: Growth inhibition of human SW620 cells assessed as cell growth at 10 uM incubated for 48 hrs by sulforhodamine B assay relative to control; assay type: functional; settings: SW-620, 48 h, read-out: Activity

SMILES | growth at 10 µM [%]
COc1cc2cc(Oc3ccc(NC(=O)Nc4ccc(Cl)c(Cl)c4)cc3)c(C)nc2cc1OC | 23.4

test system: OVCAR-3; experiment: Growth inhibition of human OVCAR3 cells incubated for 48 hrs by sulforhodamine B assay; assay type: functional; settings: OVCAR-3, 48 h

SMILES | GI50 [µM] | TGI [µM]
COc1cc2cc(Oc3ccc(NC(=O)Nc4ccc(Cl)c(Cl)c4)cc3)c(C)nc2cc1OC | 2.34 | 6.19

same assay, conditions: OVCAR-3, 48 h, read-out: LC50 (the source's name)

SMILES | CC50 [µM]
COc1cc2cc(Oc3ccc(NC(=O)Nc4ccc(Cl)c(Cl)c4)cc3)c(C)nc2cc1OC | 22.2

test system: U-251; experiment: Growth inhibition of human U251 cells incubated for 48 hrs by sulforhodamine B assay; assay type: functional; settings: U-251, 48 h

SMILES | GI50 [µM] | TGI [µM]
COc1cc2cc(Oc3ccc(NC(=O)Nc4ccc(Cl)c(Cl)c4)cc3)c(C)nc2cc1OC | 2.19 | 7.26

same assay, conditions: U-251, 48 h, read-out: LC50 (the source's name)

SMILES | CC50 [µM]
COc1cc2cc(Oc3ccc(NC(=O)Nc4ccc(Cl)c(Cl)c4)cc3)c(C)nc2cc1OC | 26.5

test system: SK-OV-3; experiment: Growth inhibition of human SKOV3 cells assessed as cell growth at 10 uM incubated for 48 hrs by sulforhodamine B assay relative to control; assay type: functional; settings: SK-OV-3, 48 h, read-out: Activity

SMILES | growth at 10 µM [%]
COc1cc2cc(Oc3ccc(NC(=O)Nc4ccc(Cl)c(Cl)c4)cc3)c(C)nc2cc1OC | 28.6

test system: SN12C; experiment: Growth inhibition of human SN12C cells assessed as cell growth at 10 uM incubated for 48 hrs by sulforhodamine B assay relative to control; assay type: functional; settings: read-out: Activity

SMILES | growth at 10 µM [%]
COc1cc2cc(Oc3ccc(NC(=O)Nc4ccc(Cl)c(Cl)c4)cc3)c(C)nc2cc1OC | 22.1

test system: NCI-H460; experiment: Growth inhibition of human NCI-H460 cells incubated for 48 hrs by sulforhodamine B assay; assay type: functional; settings: NCI-H460, 48 h

SMILES | GI50 [µM] | TGI [µM]
COc1cc2cc(Oc3ccc(NC(=O)Nc4ccc(Cl)c(Cl)c4)cc3)c(C)nc2cc1OC | 2.46 | 10.1

same assay, conditions: NCI-H460, 48 h, read-out: LC50 (the source's name)

SMILES | CC50 [µM]
COc1cc2cc(Oc3ccc(NC(=O)Nc4ccc(Cl)c(Cl)c4)cc3)c(C)nc2cc1OC | 45.8

test system: PC-3; experiment: Growth inhibition of human PC3 cells incubated for 48 hrs by sulforhodamine B assay; assay type: functional; settings: PC-3, 48 h

SMILES | GI50 [µM] | TGI [µM]
COc1cc2cc(Oc3ccc(NC(=O)Nc4ccc(Cl)c(Cl)c4)cc3)c(C)nc2cc1OC | 1.53 | 5.13

same assay, conditions: PC-3, 48 h, read-out: LC50 (the source's name)

SMILES | CC50 [µM]
COc1cc2cc(Oc3ccc(NC(=O)Nc4ccc(Cl)c(Cl)c4)cc3)c(C)nc2cc1OC | 21.3
